# Source: paper PMC9495854, “Novel Phenothiazine/Donepezil-like Hybrids Endowed with Antioxidant Activity for a Multi-Target Approach to the Therapy of Alzheimer’s Disease” (Antioxidants, 2022)
# Experiments:
# [1] = system: SH-SY5Y cells; assay: DCFH-DA cell-based antioxidant assay (H2O2-induced oxidation), SH-SY5Y; conditions: Homo sapiens, SHSY-5Y, 1 h compound, 100 μM H2O2, read-out: DCFDH-DA IC50 ± SEM SHSY-5Y
# Description: (§1) HepG2 cells were cultured in Eagle’s Minimum Essential Medium (MEM, Euroclone S.p.A., Pero, MI, Italy), supplemented with 10% Fetal Bovine Serum (FBS, Euroclone S.p.A., Pero, MI, Italy), 1% L-glutamine (Euroclone S.p.A., Pero, MI, Italy), 100 U/mL penicillin/streptomycin (Euroclone S.p.A., Pero, MI, Italy), 1% Non-Essential Amino Acids (NEAA, Euroclone S.p.A., Pero, MI, Italy). SH-SY5Y cells were grown in a 1:1 mixture of Dulbecco’s modified Eagle’s medium (DMEM)—high glucose (Euroclone S.p.A., Pero, MI, Italy) and Ham’s F12 Medium (Euroclone S.p.A., Pero, MI, Italy) supplemented with 10% FBS, 1% L-glutamine and 100 U/mL penicillin/streptomycin. For cell assays, cells were trypsinized using Trypsin-EDTA 1X in PBS (Euroclone S.p.A., Pero, MI, Italy).
# According to a slightly modified procedure already reported in the literature, the generation of ROS was determined using an oxidation-sensitive fluorescent probe, 2′,7′-dichlorodihydrofluorescein diacetate (DCFH-DA, D6665; Sigma-Aldrich, St. Louis, MO, USA). Briefly, viable cells were seeded in a black 96-well cell culture plate (Costar, Sigma-Aldrich, St. Louis, MO, USA) and after 24 h were incubated with different concentrations (0.1–100 µM) of each compound for 1 h at 37 °C in 5% CO2. […] After washing using PBS, 100 μM H2O2 in medium without serum was added to each well and the cells were incubated for an additional 30 min. The formation of fluorescent dichlorofluorescein (DCF) due to oxidation of DCFH in the presence of ROS, was read at 530 nm using a microplate reader Tecan Infinite M1000 Pro (Tecan, Cernusco S.N., Italy) and DMSO medium was used for control cells. The results are expressed as mean ± SEM of at least three independent measurements in triplicate.
# [2] = MTT cell viability assay, HepG2; assay type: cell-based; conditions: human, HepG2 cells; for IC50 at 1 h: HepG2, 1 h exposure; for IC50 at 24 h: HepG2, 24 h exposure, read-out: MTT cytotoxicity IC50 ± SEM HepG2 24 h
# Description: as §1, with “Human hepatocellular liver carcinoma (HepG2) cell line and human neuroblastoma cell line, SH-SY5Y, were purchased from the American Type Culture Collection (ATCC, Manassas, VA, USA) and maintained at 37 °C in a humidified atmosphere (95% air and 5% carbon dioxide), and they were periodically screened for contamination. HepG2” for “HepG2”
# HepG2 and SH-SY5Y cell viability was assessed as previously reported by using a conventional 3-(4,5-dimethylthiazol-2-yl)-2,5-diphenyltetrazolium bromide (MTT) assay. In brief, viable cells were seeded and grown for 24 h into a sterile 96-well cell culture cluster (Corning, Sigma-Aldrich, St. Louis, MO, USA) in a complete medium and maintained at 37 °C in a humidified atmosphere with 5% CO2. The cells were then added with different concentrations of each compound for a period of 1 h or 24 h. At the end, the culture medium was replaced by a solution of 0.5 mg/mL MTT (Sigma-Aldrich, St. Louis, MO, USA) in PBS. After 2 h of incubation at 37 °C in 5% CO2, the supernatant was carefully removed from each well, and the formazan crystals were dissolved in DMSO. The absorbance values were measured at 570 nm using Tecan Infinite M1000 Pro (Tecan, Cernusco S.N., Italy) and DMSO medium as blank solution. The results were reported as % cell viability = [optical density (OD) of tested compound/medium OD of control cells] × 100. The results are expressed as mean ± SEM of at least three independent measurements in triplicate.
# [3] = DPPH radical scavenging assay; conditions: DPPH 100 µM in methanol, 30 min
# Description: A previously reported method (Blois) with some modifications (Mishra, Ojha, & Chaudhury, 2012) was used to carry out the DPPH assay in 96-well microtiter plates. Each tested compound was dissolved in methanol, after which a freshly prepared solution of DPPH in methanol (100 µM final concentration) was added. Following vigorous stirring, each mixture was left in the dark for 30 min at room temperature, after which absorbance values for each well were read at 520 nm using a spectrophotometric plate reader (VICTOR^3 V multilabel plate reader, PerkinElmer). Antioxidant activity was determined as RSA% (radical scavenging activity). The value was calculated using following equation: RSA% = 100 × [(Ao − Ai)/Ao], where Ao and Ai represent DPPH absorbance in absence or in presence of antioxidant, respectively. Antiradical curves for calculating the EC50 values were obtained by testing each compound at several concentrations. Values of all parameters are expressed as mean ± SEM of at least three independent measurements in triplicate.
Structure (SMILES),IC50 [1] [nM],IC50 at 1 h [2] [µM],IC50 at 24 h [2] [µM],EC50 (μmol/μmol of DPPH ± SEM) [3]
"O=C(NCC1CCN(Cc2ccccc2F)CC1)c1ccc2c(c1)Nc1ccccc1S2 [Compound 11d, N-((1-(2-Fluorobenzyl)piperidin-4-yl)methyl)-10H-phenothiazine-2-carboxamide]",1430 ± 500,> 100,41 ± 0.2,0.126 ± 0.014 μmol/μmol of DPPH
"O=C(NCC1CCN(Cc2ccccc2Cl)CC1)c1ccc2c(c1)Nc1ccccc1S2 [Compound 11b, N-((1-(2-Chlorobenzyl)piperidin-4-yl)methyl)-10H-phenothiazine-2-carboxamide]",1320 ± 200,> 100,27.7 ± 0.4,0.139 ± 0.014 μmol/μmol of DPPH
"O=C(NCC1CCN(Cc2ccccc2)CC1)c1ccc2c(c1)Nc1ccccc1S2 [Compound 11a, N-((1-Benzylpiperidin-4-yl)methyl)-10H-phenothiazine-2-carboxamide]",14100 ± 600,> 100,62.7 ± 0.7,0.082 ± 0.007 μmol/μmol of DPPH
"CC(=O)N1c2ccccc2Sc2ccc(C(=O)NCCN3CCN(Cc4ccccc4Cl)CC3)cc21 [Compound 13, 10-Acetyl-N-(2-(4-(2-chlorobenzyl)piperazin-1-yl)ethyl)-10H-phenothiazine-2-carboxamide]",1220 ± 200,> 100,> 100,–
"O=C(NCCN1CCN(Cc2ccccc2Cl)CC1)c1ccc2c(c1)Nc1ccccc1S2 [Compound 12b, N-(2-(4-(2-Chlorobenzyl)piperazin-1-yl)ethyl)-10H-phenothiazine-2-carboxamide]",9100 ± 1420,> 100,> 100,0.122 ± 0.011 μmol/μmol of DPPH
"Cc1ccccc1CN1CCC(CNC(=O)c2ccc3c(c2)Nc2ccccc2S3)CC1 [Compound 11c, N-((1-(2-Methylbenzyl)piperidin-4-yl)methyl)-10H-phenothiazine-2-carboxamide]",2110 ± 400,> 100,35.2 ± 1.1,0.117 ± 0.013 μmol/μmol of DPPH
"COc1cccc(CN2CCC(CNC(=O)c3ccc4c(c3)Nc3ccccc3S4)CC2)c1 [Compound 11e, N-((1-(3-Methoxybenzyl)piperidin-4-yl)methyl)-10H-phenothiazine-2-carboxamide]",1120 ± 900,> 100,14.9 ± 0.61,0.104 ± 0.011 μmol/μmol of DPPH
"Cc1ccccc1CN1CCN(CCNC(=O)c2ccc3c(c2)Nc2ccccc2S3)CC1 [Compound 12c, N-(2-(4-(2-Methylbenzyl)piperazin-1-yl)ethyl)-10H-phenothiazine-2-carboxamide]",11300 ± 210,> 100,> 100,0.145 ± 0.010 μmol/μmol of DPPH
"O=C(NCCN1CCN(Cc2ccccc2)CC1)c1ccc2c(c1)Nc1ccccc1S2 [Compound 12a, N-(2-(4-Benzylpiperazin-1-yl)ethyl)-10H-phenothiazine-2-carboxamide]",2010 ± 610,> 100,28.8 ± 0.42,0.182 ± 0.016 μmol/μmol of DPPH
"O=C(NCCN1CCN(Cc2ccccc2F)CC1)c1ccc2c(c1)Nc1ccccc1S2 [Compound 12d, N-(2-(4-(2-Fluorobenzyl)piperazin-1-yl)ethyl)-10H-phenothiazine-2-carboxamide]",11700 ± 1110,> 100,42.9 ± 1.81,0.231 ± 0.026 μmol/μmol of DPPH
